Measurements: PMC13284649, “Discovery of the PARP1 Inhibitors from Natural Compounds Using Structure-Based Virtual Screening and Bioactivity Evaluation” (Medicinal Chemistry (Shariqah (United Arab Emirates), 2025)
Like-named read-outs stand apart in the source and are kept apart here.

Target: PARP1 (poly ADP-ribose polymerase 1) (Homo sapiens, UniProt P09874)
Assay: PARP1 enzymatic ELISA (histone-coated plates, biotinylated NAD+, HRP luminescence)
Type: biochemical

PARP1 (poly ADP-ribose polymerase 1), sequence (P09874 2-1014): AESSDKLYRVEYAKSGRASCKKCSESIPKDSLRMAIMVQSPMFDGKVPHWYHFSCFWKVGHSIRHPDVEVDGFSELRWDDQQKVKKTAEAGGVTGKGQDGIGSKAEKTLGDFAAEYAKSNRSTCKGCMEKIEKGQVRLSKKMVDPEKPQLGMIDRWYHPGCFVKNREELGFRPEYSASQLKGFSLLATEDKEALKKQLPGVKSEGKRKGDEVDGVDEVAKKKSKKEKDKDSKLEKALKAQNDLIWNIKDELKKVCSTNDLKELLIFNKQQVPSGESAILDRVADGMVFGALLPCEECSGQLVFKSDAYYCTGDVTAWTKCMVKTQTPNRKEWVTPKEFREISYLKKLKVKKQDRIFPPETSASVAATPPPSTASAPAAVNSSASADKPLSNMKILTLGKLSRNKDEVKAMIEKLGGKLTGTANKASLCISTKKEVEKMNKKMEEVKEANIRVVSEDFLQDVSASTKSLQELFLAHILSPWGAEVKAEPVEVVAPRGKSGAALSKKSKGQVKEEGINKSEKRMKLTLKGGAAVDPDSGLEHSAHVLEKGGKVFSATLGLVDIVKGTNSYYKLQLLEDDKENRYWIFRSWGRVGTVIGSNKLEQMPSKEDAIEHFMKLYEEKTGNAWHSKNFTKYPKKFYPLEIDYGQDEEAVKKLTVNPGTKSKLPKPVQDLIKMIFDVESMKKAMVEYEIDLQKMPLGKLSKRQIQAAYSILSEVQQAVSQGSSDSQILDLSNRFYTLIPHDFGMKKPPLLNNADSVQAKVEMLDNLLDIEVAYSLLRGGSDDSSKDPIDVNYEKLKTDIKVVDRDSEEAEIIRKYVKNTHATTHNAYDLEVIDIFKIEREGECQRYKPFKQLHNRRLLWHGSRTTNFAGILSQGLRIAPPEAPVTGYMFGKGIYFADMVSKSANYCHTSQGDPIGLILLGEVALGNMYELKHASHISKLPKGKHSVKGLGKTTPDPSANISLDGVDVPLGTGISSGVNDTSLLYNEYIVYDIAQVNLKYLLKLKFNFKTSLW

Row | Structure (SMILES) | IC50 [µM] | IC50 (read-out: IC50) [µM]
1 | COc1ccc2cc3[n+](cc2c1OC)CCc1cc(O)c(O)cc1-3 [compound 2, demethyleneberberine] | 2 ± 0.8 | 
2 | COc1c2ccoc2nc2c(O)cccc12 [compound 3, 8-hydroxy dictanmnine] | 44.9 ± 8.4 | 
3 | COc1ccc2ccc(=O)oc2c1CC(O)C(C)(C)O (stereo not shown) [compound 4, meranzin hydrate] |  | 67.2 ± 7.6
4 | COc1ccc2ccc(=O)oc2c1CC=C(C)C [compound 5, osthol] | 76.5 ± 12.4 | 
